39 compounds from patent US20230203003A1, “Notch Inhibitors and Uses Thereof” (StemSynergy Therapeutics, Inc., priority 2020, published 2023) can be followed below.

For the assay, the target named is T1, hNotch1ICD (Homo sapiens, UniProt P46531).
T1 construct: pLV[Tet]-Puro-TRE3G>Notch1-ICD; expressed in transfected cells; host or cells: 293A cells
Briefly: Notch1 Reporter Assay (Dox-inducible Notch1-ICD, CSL-responsive luciferase in 293A cells). Type of assay: cell-based. The method, then: 293A cells expressing 1) pCMV-Tet-On 3G, 2) pLV[Tet]-Puro-TRE3G>Notch1-ICD, 3) pLV[Tet]-Puro-TRE3G>Notch2-ICD, 4) pLV[Tet]-Puro-TRE3G>Notch3-ICD, and 5) pCSL-RElement-Luc were used. When Doxycycline is added, the Tet-ON gene activates expression of hNotch1ICD, which together with endogenous NTC components binds to CSL responsive elements (pCSL-RElement-Luc) and expresses luciferase. 1 ×× 10^4 cells are plated in 100 µL (96-well format). 24 h later, compounds (10 mM stock in DMSO) are diluted in DMSO to 200X, then added (5 ul into 1 mL) to cell culture media containing 50 ng/mL Dox. This is then added 1:1 to cells. Final DMSO = 0.25%, Dox = 25 ng/mL. After 24 h, media is discarded, and cells are lysed in passive lysis buffer (Promega). Cells are rocked at room temperature for 15 min and then lysate is divided for luciferase assay (Luciferase Assay System, Promega) and cell viability (CellTiter Glo 2.0, Promega). Raw luciferase is normalized to cell viability, and then scaled to DMSO wells. Results are analyzed and IC50′s are determined in GraphPad by nonlinear regression curve fitting (4 parameter) of dose response curves.
Background: Reporter assays use an easily measured gene product as a stand-in for the process of interest.

Where [1] appears, read: value printed in the synthesis heading of the compound, read-out: Notch1 Reporter Assay IC50.
[2] abbreviates: 293A cells, 24 h, luciferase normalized to cell viability, read-out: Notch1 Reporter Assay IC50.

Structures can show the parent of a compound that is named as a salt. Where two headings read alike, the source gives them in different places.

T1 sequence (P46531 1754-2555 limits assumed): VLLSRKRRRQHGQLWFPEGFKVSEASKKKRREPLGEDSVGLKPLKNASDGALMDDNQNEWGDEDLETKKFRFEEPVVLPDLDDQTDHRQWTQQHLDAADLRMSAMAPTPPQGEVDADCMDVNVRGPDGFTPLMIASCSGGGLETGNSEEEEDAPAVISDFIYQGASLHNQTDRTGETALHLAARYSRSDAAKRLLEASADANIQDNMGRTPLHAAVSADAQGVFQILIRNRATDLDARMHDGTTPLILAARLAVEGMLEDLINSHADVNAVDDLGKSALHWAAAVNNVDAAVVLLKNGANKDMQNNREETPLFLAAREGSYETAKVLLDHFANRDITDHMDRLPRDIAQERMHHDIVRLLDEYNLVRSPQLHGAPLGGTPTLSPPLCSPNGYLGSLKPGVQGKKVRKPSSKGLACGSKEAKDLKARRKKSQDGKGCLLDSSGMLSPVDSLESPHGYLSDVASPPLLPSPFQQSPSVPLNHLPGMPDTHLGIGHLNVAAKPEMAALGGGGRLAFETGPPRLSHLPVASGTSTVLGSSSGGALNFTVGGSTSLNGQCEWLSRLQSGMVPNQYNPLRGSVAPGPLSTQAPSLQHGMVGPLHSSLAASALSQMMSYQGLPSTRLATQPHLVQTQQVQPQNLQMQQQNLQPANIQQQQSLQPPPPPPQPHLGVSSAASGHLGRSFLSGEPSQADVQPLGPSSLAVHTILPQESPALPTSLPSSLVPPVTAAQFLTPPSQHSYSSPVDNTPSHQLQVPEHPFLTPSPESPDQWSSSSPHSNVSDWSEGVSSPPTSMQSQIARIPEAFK

`Cc1cccnc1NC(=O)c1c(O)c2ccc(N3CCN(C)CC3)cc2n(CC(C)C)c1=O` [SSTN-580_TFA salt, 4-hydroxy-1-isobutyl-7-(4-methylpiperazin-1-yl)-N-(3-methylpyridin-2-yl)-2-oxo-1,2-dihydroquinoline-3-carboxamide TFA salt]: the concentration for half-maximal inhibition (IC50) under setting [1] stood at 13.3 µM.
Consider `CC(C)Cn1c(=O)c(C(=O)Nc2cc(F)cc(N3CCN(C)CC3)c2)c(O)c2ccccc21` [583(02)], for which the IC50 under setting [2] is 6.3 µM.
As to `CC(C)Cn1c(=O)c(C(=O)Nc2cccc(F)c2)c(O)c2cc(N3CCN(C)CC3)ccc21` [577(01)], the half-inhibitory concentration (IC50) under setting [2] turned out to be 9.7 µM.
As to `CC(C)Cn1c(=O)c(C(=O)Nc2ccc(F)c(N3CCN(C)CC3)c2)c(O)c2ccccc21` [584(01)], the IC50 under setting [2] was found to be 4.5 µM.
On to `Cc1ccnc(NC(=O)c2c(O)c3ccccc3n(Cc3ccccc3)c2=O)c1` [SSTN-410], for which the IC50 under setting [2] amounted to 21.9 µM.
For `Cc1cccnc1NC(=O)c1c(O)c2ccc(N3CCN(C)CC3)cc2n(CC(C)C)c1=O` [580(01)], under setting [2], the IC50 stood at 13.3 µM.
As for `CC(C)Cn1c(=O)c(C(=O)Nc2cccc(F)c2N2CCN(C)CC2)c(O)c2ccccc21` [581(01)], under setting [2], the IC50 came out at 7.8 µM.
`CC(C)Cn1c(=O)c(C(=O)Nc2cccc(F)c2)c(O)c2cc(N3CCN(C)CC3)ccc21` [SSTN-577_HCl salt, N-(3-fluorophenyl)-4-hydroxy-1-isobutyl-6-(4-methylpiperazin-1-yl)-2-oxo-1,2-dihydroquinoline-3-carboxamide hydrochloride salt]: under setting [1], the concentration for half-maximal inhibition (IC50) stood at 6.44 µM.
With `O=C(Nc1ncccc1O)c1c(O)c2c([nH]c1=O)CCCC2` [SSTN-402], under setting [2], the IC50 was 12.1 µM.
`CC(C)Cn1c(=O)c(C(=O)Nc2ccccc2F)c(O)c2ccccc21` [compound 537, N-(2-fluorophenyl)-4-hydroxy-1-isobutyl-2-oxo-1,2-dihydroquinoline-3-carboxamide]: the 50% inhibitory concentration (IC50) under setting [2] was 5.1 µM.
With `CC(C)Cn1c(=O)c(C(=O)Nc2ccc(F)cc2N2CCN(C)CC2)c(O)c2ccccc21` [570(01)], the 50% inhibitory concentration (IC50) under setting [2] was 6.5 µM.
Same read-out and setting: under `CC(C)Cn1c(=O)c(C(=O)Nc2cc(Cl)ccn2)c(O)c2ccccc21` [compound 526, N-(4-chloropyridin-2-yl)-4-hydroxy-1-isobutyl-2-oxo-1,2-dihydroquinoline-3-carboxamide] stands 20.3 µM.
For `CC(C)Cn1c(=O)c(C(=O)Nc2ncccc2O)c(O)c2ccccc21` [compound 519, 4-hydroxy-N-(3-hydroxypyridin-2-yl)-1-isobutyl-2-oxo-1,2-dihydroquinoline-3-carboxamide], the IC50 under setting [2] was determined as 17.8 µM.
Consider `CC(C)Cn1c(=O)c(C(=O)Nc2cc(F)c(N3CCN(C)CC3)c(F)c2)c(O)c2ccccc21` [SSTN-582_HCl salt, N-(3,5-difluoro-4-(4-methylpiperazin-1-yl)phenyl)-4-hydroxy-1-isobutyl-2-oxo-1,2-dihydroquinoline-3-carboxamide hydrochloride salt], for which, under setting [1], the IC50 is 1.9 µM.
In turn, `Cc1cc(NC(=O)c2c(O)c3ccccc3n(CC(C)C)c2=O)on1` [compound 517, 4-hydroxy-1-isobutyl-N-(3-methylisoxazol-5-yl)-2-oxo-1,2-dihydroquinoline-3-carboxamide] yielded an IC50 (Notch1 Reporter Assay IC50, µM, 293A cells, 24 h, luciferase normalized to cell viability) of 22.6 µM.
`CC(C)Cn1c(=O)c(C(=O)Nc2cccc(F)c2)c(O)c2c(N3CCN(C)CC3)cccc21` [588(01)]: under setting [2], the IC50 was 10.3 µM.
On the same count and under the same terms, under `CC(C)Cn1c(=O)c(C(=O)Nc2ccc(N3CCN(C)CC3)cc2)c(O)c2ccccc21` [569(01)] stands 8.4 µM.
Consider `CC(C)Cn1c(=O)c(C(=O)Nc2cccc(F)c2N2CCN(C)CC2)c(O)c2ccccc21` [SSTN-581_Formate salt, N-(3-fluoro-2-(4-methylpiperazin-1-yl)phenyl)-4-hydroxy-1-isobutyl-2-oxo-1,2-dihydroquinoline-3-carboxamide formate salt], for which, under setting [1], the IC50 was 7.76 µM.
Take `CC(C)Cn1c(=O)c(C(=O)Nc2ccc(F)c(N3CCN(C)CC3)c2)c(O)c2ccccc21` [SSTN-584_Formate salt, N-(4-fluoro-3-(4-methylpiperazin-1-yl)phenyl)-4-hydroxy-1-isobutyl-2-oxo-1,2-dihydroquinoline-3-carboxamide formate salt]: the IC50 under setting [1] was 4.54 µM.
On the same count and under the same terms, under `CC(C)Cn1c(=O)c(C(=O)Nc2ccc(N3CCN(C)CC3)c(F)c2)c(O)c2ccccc21` [SSTN-572_HCl salt, N-(3-fluoro-4-(4-methylpiperazin-1-yl)phenyl)-4-hydroxy-1-isobutyl-2-oxo-1,2-dihydroquinoline-3-carboxamide hydrochloride salt] stands 3.4 µM.
As for `Cc1cccnc1NC(=O)c1c(O)c2ccccc2n(CC(C)C)c1=O` [compound 513, 4-hydroxy-1-isobutyl-N-(3-methylpyridin-2-yl)-2-oxo-1,2-dihydroquinoline-3-carboxamide], the half-maximal inhibitory concentration (IC50) under setting [2] was determined as 11.1 µM.
With `Cc1cccnc1NC(=O)c1c(O)c2ccc(N3CCN(C)CC3)cc2n(CC(C)C)c1=O` [580(02)], the IC50 under setting [2] was 14 µM.
Regarding `CC(C)Cn1c(=O)c(C(=O)Nc2ccc(F)cc2)c(O)c2ccccc21` [compound 539, N-(4-fluorophenyl)-4-hydroxy-1-isobutyl-2-oxo-1,2-dihydroquinoline-3-carboxamide], the IC50 under setting [2] stood at 6.6 µM.
For `Cc1ncccc1NC(=O)c1c(O)c2ccccc2n(CC(C)C)c1=O` [compound 540, 4-hydroxy-1-isobutyl-N-(2-methylpyridin-3-yl)-2-oxo-1,2-dihydroquinoline-3-carboxamide], under setting [2], the IC50 stood at 18.5 µM.
For `CC(C)Cn1c(=O)c(C(=O)Nc2cc(F)cc(N3CCN(C)CC3)c2)c(O)c2ccccc21` [583(01)], the IC50 under setting [2] was found to be 8.1 µM.
Same read-out and setting: under `Cc1cccnc1NC(=O)c1c(O)c2cc(N3CCN(C)CC3)ccc2n(CC(C)C)c1=O` [579(01)] stands 18.4 µM; under `O=C(Nc1ccccc1)c1c(O)c2c(n(Cc3ccco3)c1=O)CCCC2` [SSTN-379], 27.5 µM.
For the compound `CC(C)Cn1c(=O)c(C(=O)Nc2ccccc2N2CCN(C)CC2)c(O)c2ccccc21` [SSTN-568, 4-hydroxy-1-isobutyl-N-(2-(4-methylpiperazin-1-yl)phenyl)-2-oxo-1,2-dihydroquinoline-3-carboxamide], the IC50 under setting [1] came out at 21.5 µM.
Turning to `Cc1cccnc1NC(=O)c1c(O)c2cc(N3CCN(C)CC3)ccc2n(CC(C)C)c1=O` [SSTN-579, 4-hydroxy-1-isobutyl-6-(4-methylpiperazin-1-yl)-N-(3-methylpyridin-2-yl)-2-oxo-1,2-dihydroquinoline-3-carboxamide], the IC50 under setting [1] was 18.4 µM.
The same measure, in the same setting: with `CC(C)Cn1c(=O)c(C(=O)Nc2cc(F)cc(N3CCN(C)CC3)c2)c(O)c2ccccc21` [SSTN-583_HCl salt, N-(3-fluoro-5-(4-methylpiperazin-1-yl)phenyl)-4-hydroxy-1-isobutyl-2-oxo-1,2-dihydroquinoline-3-carboxamide hydrochloride salt] the figure was 6.33 µM.
Turning to `Cc1cccnc1NC(=O)c1c(O)c2c(Br)cccc2n(CC(C)C)c1=O` [compound 563, 5-bromo-4-hydroxy-1-isobutyl-N-(3-methylpyridin-2-yl)-2-oxo-1,2-dihydroquinoline-3-carboxamide], under setting [2], the IC50 was 8 µM.
Regarding `Cc1cc(NC(=O)c2c(O)c3ccccc3n(CC(C)C)c2=O)n[nH]1` [compound 549, 4-hydroxy-1-isobutyl-N-(5-methyl-1H-pyrazol-3-yl)-2-oxo-1,2-dihydroquinoline-3-carboxamide], the IC50 under setting [2] came to 10.1 µM.
For the compound `CC(C)Cn1c(=O)c(C(=O)Nc2ccccc2N2CCN(C)CC2)c(O)c2ccccc21` [SSTN-568_HCl salt, 4-hydroxy-1-isobutyl-N-(2-(4-methylpiperazin-1-yl)phenyl)-2-oxo-1,2-dihydroquinoline-3-carboxamide hydrochloride salt], the IC50 under setting [1] was 6.83 µM.
As for `CC(C)Cn1c(=O)c(C(=O)Nc2ncco2)c(O)c2ccccc21` [compound 528, 4-hydroxy-1-isobutyl-N-(oxazol-2-yl)-2-oxo-1,2-dihydroquinoline-3-carboxamide], the IC50 under setting [2] worked out at 14.3 µM.
For the compound `Cc1cnccc1NC(=O)c1c(O)c2ccccc2n(CC(C)C)c1=O` [compound 551, 4-hydroxy-1-isobutyl-N-(3-methylpyridin-4-yl)-2-oxo-1,2-dihydroquinoline-3-carboxamide], the IC50 under setting [2] amounted to 6.7 µM.
As to `O=C(Nc1ccc(F)cc1)c1c(O)c2cccnc2n(-c2ccccc2)c1=O` [SSTN-443], the half-maximal inhibitory concentration (IC50) under setting [2] turned out to be 9 µM.
With `CC(C)Cn1c(=O)c(C(=O)Nc2ccccn2)c(O)c2ccccc21` [compound 518, 4-hydroxy-1-isobutyl-2-oxo-N-(pyridin-2-yl)-1,2-dihydroquinoline-3-carboxamide], the IC50 under setting [2] turned out to be 18.7 µM.
Same read-out and setting: with `CC(C)Cn1c(=O)c(C(=O)Nc2cccc(F)c2N2CCN(C)CC2)c(O)c2ccccc21` [581(02)] the figure was 7.7 µM.
Turning to `CC(C)Cn1c(=O)c(C(=O)Nc2cccc(F)c2)c(O)c2c(N3CCN(C)CC3)cccc21` [SSTN-588, N-(3-fluorophenyl)-4-hydroxy-1-isobutyl-5-(4-methylpiperazin-1-yl)-2-oxo-1,2-dihydroquinoline-3-carboxamide], the IC50 under setting [1] worked out at 10.3 µM.

A word on the IC50: it is the concentration at which inhibition is half-maximal.
